{"source": "patent US11596670B2", "about": "“Treatment of a disease of the gastrointestinal tract with IL-10 or an IL-10 agonist” (BIORA THERAPEUTICS, INC., priority 2017, dated 2023)", "key": {"[1]": {"experiment": "Tissue, plasma, rectal sample and GI content pharmacokinetics of tacrolimus, oral vs. intra-cecal ingestible device (Example 10)", "set-up": "species or system Yorkshire-Cross farm swine", "conditions": "in vivo; for Cmax: female, Yorkshire-Cross, pig, IC capsule", "experimental": "No further randomization procedure was employed.\nAnimals in Group 1 received an ingestible device containing 0.8 mL of vehicle solution (80% alcohol, 20% HCO-60). Animals in Group 2 received orally […] liquid formulation of tacrolimus at 4 mg/0.8 mL per animal (Prograf: 5 mg/mL). Animals in Group 3 received intra-cecally an ingestible device containing tacrolimus at 1 mg in 0.8 mL per ingestible device. Animals in Group 4 received intra-cecally an ingestible device containing tacrolimus at 2 mg in 0.8 mL per ingestible device. Animals in Group 5 received intra-cecally an ingestible device containing tacrolimus at 4 mg in 0.8 mL per ingestible device. To control for potential confounding effects of the surgery, all groups fast on Day −11 at least 24 hr before being subjected to anesthesia followed by surgical placements of a cecal port by a veterinary surgeon at Day −10. All animals were fasted for at least 12 hr prior to dosing on Day 1. Animals were dosed via either intra-cecal dosing (IC) or oral dosing (PO) at Day 1 (between 6-8 p.m.). All animals resumed feeding at approximately 4 hours after dose (11-12 p.m. after dosing).\nAnimals in Group 1 (Vehicle Control) were administered a single intra-cecal ingestible device containing 0.8 mL Vehicle solution (80% alcohol, 20% castor oil (HCO-60) on Day 1. On Day −10 the animals were anesthetized, and a veterinary surgeon surgically placed an intra-cecal port in each animal. On Day 1, each animal was placed into a sling then a single intra-cecal ingestible device containing 0.8 mL vehicle solution (80% alcohol, 20% castor oil (HCO-60)) is introduced by the veterinary surgeon into the cecum via the cecal port in each animal. Following ingestible device placement, the animals were removed from the slings and placed back into their pens with water. All animals resumed feeding at approximately 4 hours after dose. […] A total of 60 samples were collected.\nApproximately 200˜400 mg of rectal content were collected, if available, with a fecal swab (Copan Diagnostics Nylon Flocked Dry Swabs, 502CS01). The fecal swab was pre-weighed and weighed after collection in the collection tube (Sterile Tube and Cap No Media, PFPM913S), and the sample weight was recorded. The fecal swab was broken via the breakpoint, and was stored in the collection tube, and immediately frozen at −70° C. […] Immediately following euthanasia, tissue was collected.\nFor tissue necropsy, small intestine fluid and cecal fluid were collected separately from all the animals into two separate square plastic bottles, and stored at −20° C. The length and diameter of the cecum and the colon was measured from one animal in each group and recorded for reference. Tissues were collected for pharmacokinetic analyses and include mesenteric lymph nodes, a Peyer's Patch, and five gastrointestinal sections, including cecum, proximal colon, transverse colon, distal colon, and rectum. All samples were weighed, and the tissue sample weights were recorded. In each of the five gastrointestinal sections, tissue samples were collected in three different areas where the mucosal surface was visible and not covered by luminal content by using an 8.0-mm punch biopsy tool. Around 3 grams of the total punched sample were collected into a pre-weighed 15-mL conical tube, and the tissue weight was recorded. Three mesenteric lymph nodes were collected from different areas and weighed. At least one Peyer's Patch was collected and weighed.\nLuminal contents were collected for pharmacokinetic analyses from the surface of the tissue from each of five gastrointestinal sections: cecum, proximal colon, transverse colon, distal colon, and rectum (total of 75)."}, "[2]": {"experiment": "in vivo", "experimental": "The primary objective of this study was to study the pharmacokinetics of oral versus intra-cecal administration of tacrolimus in normal Yorkshire-Cross farm swine.\nThis study compares the effects of administration of: a single intra-cecal administration of a device containing 0.8 mL sterile vehicle solution (80% alcohol, 20% castor oil (HCO-60)); a single oral dose of tacrolimus at 0.09 mg/kg (in sterile vehicle solution); and a single intra-cecal administration of a device containing either 0.02 mg/kg (in sterile vehicle solution), 0.04 mg/kg (in sterile vehicle solution), or 0.09 mg/kg (in sterile vehicle solution).\nThis study employed five groups of three female swine weighing approximately 45 to 50 kg at study start. Swine were randomly placed into animal rooms/pens as they are transferred from the delivery vehicle without regard to group. Group numbers were assigned to the rooms in order of room number. No further randomization procedure was employed.\nAnimals in Group 1 received intra-cecally a device containing a vehicle solution (80% alcohol, 20% HCO-60). Animals in Group 2 received orally a liquid formulation of tacrolimus at 0.09 mg/kg per animal. Animals in Group 3 received intra-cecally a device containing tacrolimus at 0.02 mg/kg per device. Animals in Group 4 received intra-cecally a device containing tacrolimus 0.04 mg/kg per device. Animals in Group 5 received intra-cecally a device containing tacrolimus 0.09 mg/kg per device."}, "[3]": {"conditions": "female, Yorkshire-Cross, pig, in vivo, 0.02 mg/kg"}, "[4]": {"conditions": "female, Yorkshire-Cross, pig, in vivo, 0.09 mg/kg"}}}
{"molecule": "C=CC[C@@H]1/C=C(\\C)C[C@H](C)C[C@H](OC)[C@H]2O[C@@](O)(C(=O)C(=O)N3CCCC[C@H]3C(=O)O[C@H](/C(C)=C/[C@@H]3CC[C@@H](O)[C@H](OC)C3)[C@H](C)[C@@H](O)CC1=O)[C@H](C)C[C@@H]2OC", "note": "[tacrolimus]", "values": [{"measurement": "Cmax", "setting": "[1]; high (0.09 mg/kg) dose (first value)", "value": "9.2 ± 3.3", "unit": "ng/mL"}, {"measurement": "Cmax", "setting": "[1]; moderate (0.04 mg/kg) dose", "value": "21.8 ± 4.73", "unit": "ng/mL"}, {"measurement": "luminal content (spiral, transverse, and distal colon) concentrations", "setting": "[1]", "value": "Significantly higher"}, {"measurement": "mean concentration of tacrolimus in the cecum tissue and the proximate colon tissue", "setting": "[1]", "value": "higher"}, {"measurement": "tissue (spiral and transverse colon) concentrations", "setting": "[1]", "value": "Significantly higher"}, {"measurement": "level of tacrolimus in tissue", "setting": "[1]; po", "value": "No measurable level"}, {"measurement": "AUC", "setting": "[2]; female, Yorkshire-Cross, pig, 0.02 mg/kg", "value": "15.3 ± 2.36", "unit": "ng·h/mL"}, {"measurement": "AUC", "setting": "[2]; female, Yorkshire-Cross, pig, 0.04 mg/kg", "value": "51.4 ± 4.04", "unit": "ng·h/mL"}, {"measurement": "AUC(0-t)", "setting": "[2]; [3]", "value": 15.3, "unit": "ng·h/mL"}, {"measurement": "Cmax", "setting": "[2]; [3]", "value": "2.39 ± 0.57", "unit": "ng/mL"}, {"measurement": "AUC(0-t)", "setting": "[2]; female, Yorkshire-Cross, pig, in vivo, 0.04 mg/kg", "value": 51.4, "unit": "ng·h/mL"}, {"measurement": "AUC", "setting": "[2]; [4]", "value": "130 ± 7.83", "unit": "ng·h/mL"}, {"measurement": "AUC(0-t)", "setting": "[2]; [4]", "value": 130, "unit": "ng·h/mL"}, {"measurement": "AUC(0-t)", "setting": "[2]; female, Yorkshire-Cross, pig, in vivo, po, 0.09 mg/kg", "value": 16.8, "unit": "ng·h/mL"}, {"measurement": "AUC", "setting": "[2]; female, Yorkshire-Cross, pig, po, 0.09 mg/kg", "value": "16.8 ± 3.64", "unit": "ng·h/mL"}, {"measurement": "concentration at 12 h", "setting": "[2]; female, Yorkshire-Cross, pig, po, 0.09 mg/kg, Trough (12 hr)", "value": "0.568 ± 0.291", "unit": "ng/mL"}, {"measurement": "Kp at 12 h", "setting": "[2]; female, Yorkshire-Cross, swine, po, 0.09 mg/kg", "value": 0}, {"measurement": "Ratio Tissue (mean) (ng/g)/ Trough(12 hr)(ng/ml)", "setting": "[2]; female, Yorkshire-Cross, swine, po, 0.09 mg/kg, 12 h", "value": 0}, {"measurement": "mean concentration and AUC0-12 hours of tacrolimus in the blood", "setting": "[2]; po, 0.09 mg/kg", "value": "higher"}]}
